# Reference: ChEMBL document CHEMBL1687771 (Antimicrob Agents Chemother, 2010)
# The source made the active and inactive calls. The rule behind the calls is not given here.
# How the values were obtained:
# Bacillus anthracis [1] = assay: Antimicrobial activity against Bacillus anthracis Ames infected in BALB/c mouse anthrax spore inhalation infection model assessed as decrease in tissue bacterial burden at 50 mg/kg, sc bid for 14 days administered 24 hrs post bacterial challenge measured 43 days post bacterial challenge; format: functional, organism-based; set-up: dose 50 mg/kg
# Bacillus anthracis [2] = assay: Antimicrobial activity against Bacillus anthracis Ames infected in BALB/c mouse anthrax spore inhalation infection model assessed as decrease in tissue bacterial burden at 50 mg/kg, sc bid for 21 days administered 24 hrs post bacterial challenge measured 43 days post bacterial challenge; format: functional, organism-based; set-up: dose 50 mg/kg
# Mus musculus [3] = assay: AUC at 24 hrs in Bacillus anthracis Ames infected in BALB/c mouse anthrax spore inhalation infection model at 50 mg/kg, sc bid for 14 days administered 24 hrs post bacterial challenge; format: functional, organism-based; set-up: dose 50 mg/kg
# Mus musculus [4] = assay: AUC in Bacillus anthracis Ames infected in BALB/c mouse anthrax spore inhalation infection model at 50 mg/kg, sc bid for 14 days administered 24 hrs post bacterial challenge; format: functional, organism-based; set-up: dose 50 mg/kg
# Bacillus anthracis [5] = assay: Antimicrobial activity against Bacillus anthracis Ames by CLSI broth microdilution method; format: functional
compound,measurement,setting,value
CCCCCCCCCC(=O)N[C@@H](Cc1c[nH]c2ccccc12)C(=O)N[C@H](CC(N)=O)C(=O)N[C@@H](CC(=O)O)C(=O)N[C@@H]1C(=O)NCC(=O)N[C@@H](CCCN)C(=O)N[C@@H](CC(=O)O)C(=O)N[C@H](C)C(=O)N[C@@H](CC(=O)O)C(=O)NCC(=O)N[C@H](CO)C(=O)N[C@@H]([C@H](C)CC(=O)O)C(=O)N[C@@H](CC(=O)c2ccccc2N)C(=O)O[C@@H]1C,Activity,Bacillus anthracis [1],Active
same,Activity,Bacillus anthracis [2],Active
same,AUC,Mus musculus [3],750000 ng·h/mL
same,AUC,Mus musculus [4],> 375000 ng·h/mL
same,MIC50,Bacillus anthracis [5],2 µg/mL
same,MIC90,Bacillus anthracis [5],4 µg/mL
